Literature values as cited in patent publication US4239780A, “Phospholipase A2 inhibition” (The Upjohn Company, priority 1979, dated 1980).

Experiments:
phospholipase A2 = phospholipase A2 (Naja naja, UniProt P15445); settings: cited from earlier work
[1] = system: phospholipase A2 derived from perfused guinea pig lung; settings: enzyme derived from perfused guinea pig lung; cited from earlier work
[2] = system: phospholipase A2 of rabbit polymorphonuclear leukocytes; settings: cited from earlier work
[3] = molecular target: phospholipase A2 from venom of Crotalus Adamanteus (Crotalus adamanteus, UniProt P00623); settings: enzyme from Crotalus Adamanteus venom; cited from earlier work
[4] = molecular target: phospholipase A2 from venom of bee (Apis mellifera, UniProt P00630); settings: enzyme from bee venom; cited from earlier work
[5] = molecular target: T1, phospholipase A2 from pig pancreas (Sus scrofa, UniProt P00592); settings: enzyme from pig pancreas; cited from earlier work
T1 construct: host or cells: pig pancreas
T1 sequence (P00592 23-146): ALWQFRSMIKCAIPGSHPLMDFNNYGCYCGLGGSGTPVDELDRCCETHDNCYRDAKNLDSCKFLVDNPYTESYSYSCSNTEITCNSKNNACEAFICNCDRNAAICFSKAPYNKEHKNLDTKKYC

Sequence of phospholipase A2 from venom of bee (P00630 34-167 limits assumed): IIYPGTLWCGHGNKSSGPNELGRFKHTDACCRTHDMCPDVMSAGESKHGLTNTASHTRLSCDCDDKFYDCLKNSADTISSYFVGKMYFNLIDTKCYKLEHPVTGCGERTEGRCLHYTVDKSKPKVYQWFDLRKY
Sequence of phospholipase A2 from venom of Crotalus Adamanteus (P00623 17-138 limits assumed): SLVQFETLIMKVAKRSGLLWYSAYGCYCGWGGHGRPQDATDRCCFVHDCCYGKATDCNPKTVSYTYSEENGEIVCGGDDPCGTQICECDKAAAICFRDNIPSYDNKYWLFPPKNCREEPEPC
Sequence of phospholipase A2 (P15445 whole entry, looked up, the tested form may be a part): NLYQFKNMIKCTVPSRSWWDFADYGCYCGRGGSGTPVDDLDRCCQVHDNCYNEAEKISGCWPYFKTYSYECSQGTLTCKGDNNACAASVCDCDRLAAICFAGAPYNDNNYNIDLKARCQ

In the case of `O=C(CBr)c1ccc(Br)cc1` [Bromphenacyl bromide], the “inhibition of phospholipase A2” value (phospholipase A2) is listed as “inhibit phospholipase A2 by acylating a histadine residue”.

In the case of `CCN(CC)CCCC(C)Nc1c2ccc(Cl)cc2nc2ccc(OC)cc12` (stereo not drawn) [mepacrine], the “inhibition of phospholipase A2” value [1] is listed as “inhibits the activity of phospholipase A2”.

In the case of `COc1ccc2c(c1)c(CC(=O)O)c(C)n2C(=O)c1ccc(Cl)cc1` [indomethacin, Indomethacin], the “inhibition of phospholipase A2” value [2] is listed as “inhibit phospholipase A2 of rabbit polymorphonuclear leukocytes in dose dependent fashion”, the “inhibition of phospholipase A2” value [3] is listed as “inactive” and the “inhibition of phospholipase A2” value [4] is listed as “inactive”. The “inhibition of phospholipase A2” value [5] was “inactive”.
